These compounds were tested on HCV 1b genotype (assay: HCV Replicon assay (HCV-neo replicon cells, wild-type)). Conditions: HCV 1b genotype replicon; class symbols.
Format: cell-based
Description: An HCV Replicon assay was utilized in the present disclosure, and was prepared, conducted and validated as described in commonly owned PCT/US2006/022197 and in O'Boyle et. al. Antimicrob Agents Chemother. 2005 April; 49 (4):1346-53. Assay methods incorporating luciferase reporters have also been used as described (Apath.com).
HCV-neo replicon cells and replicon cells containing mutations in the NS5A region were used to test the currently described family of compounds. The compounds were determined to have more than 10-fold less inhibitory activity on cells containing mutations than wild-type cells. Thus, the compounds of the present disclosure can be effective in inhibiting the function of the HCV NS5A protein and are understood to be as effective in combinations as previously described in application PCT/US2006/022197 and commonly owned WO/O4014852. Further, the compounds of the present disclosure can be effective against the HCV 1b genotype. It should also be understood that the compounds of the present disclosure can inhibit multiple genotypes of HCV. […] In one embodiment, compounds of the present disclosure are inhibitory versus 1a, 1b, 2a, 2b, 3a, 4a, and 5a genotypes.

Compound	EC50 [nM]
CN(C)[C@@H](C(=O)N1CCC[C@H]1c1nc2cc(-c3cnc(-c4cccc5[nH]c([C@@H]6C[C@@H]7C[C@@H]7N6C(=O)[C@@H](c6ccccc6)N(C)C)nc45)o3)ccc2[nH]1)c1ccccc1 (single isomer, unassigned) [Example J25.a]	4.57 to 99
COC(=O)N[C@@H](C(=O)N1C2C[C@@H]2C[C@H]1c1nc2cc(-c3ccc(-c4ccc5[nH]c([C@@H]6C[C@H]7CC7N6C(=O)[C@H](NC(=O)OC)c6ccccc6)nc5c4)cc3)ccc2[nH]1)c1ccccc1 (single isomer, unassigned) [Example M46.2]	< 4.57

Same assay, conditions: Hepatitis C virus, HCV 1b genotype replicon; class symbols

Compound	EC50 [nM]
COC(=O)N[C@@H](C(=O)N1CCC[C@H]1c1nc2c(-c3ncc(-c4ccc5[nH]c([C@@H]6CCCN6C(=O)[C@H](NC(C)=O)c6ccccc6)nc5c4)o3)cccc2[nH]1)c1ccccc1 (mixture of isomers) [Example J6.1, methyl ((1R)-2-((2S)-2-(4-(5-(2-((2S)-1-(acetamido (phenyl)acetyl)-2-pyrrolidinyl)-1H-benzimidazol-5-yl)-1,3-oxazol-2-yl)-1H-benzimidazol-2-yl)-1-pyrrolidinyl)-2-oxo-1-phenylethyl) carbamate]	< 4.57
CC(=O)NC(C(=O)N1CCC[C@H]1c1nc2cc(-c3cnc(-c4cccc5[nH]c([C@@H]6CCCN6C(=O)C(NC(C)=O)c6ccccc6)nc45)o3)ccc2[nH]1)c1ccccc1 (mixture of isomers) [Example J12.1, N-((1R)-2-((2S)-2-(4-(5-(2-((2S)-1-((2R)-2-acetamido-2-phenylacetyl)-2-pyrrolidinyl)-1H-benzimidazol-5-yl)-1,3-oxazol-2-yl)-1H-benzimidazol-2-yl)-1-pyrrolidinyl)-2-oxo-1-phenylethyl) acetamide]	4.57 to 99
CN(C)[C@@H](C(=O)N1CCC[C@H]1c1nc2cc(-c3cnc(-c4cccc5[nH]c([C@@H]6C[C@@H]7C[C@@H]7N6C(=O)[C@@H](c6ccccc6)N(C)C)nc45)o3)ccc2[nH]1)c1ccccc1 (single isomer, unassigned) [Example J25]	< 4.57
COC(=O)N[C@@H](C(=O)N1C2C[C@@H]2C[C@H]1c1nc2cc(-c3ccc(-c4ccc5[nH]c([C@@H]6C[C@H]7CC7N6C(=O)[C@H](NC(=O)OC)c6ccccc6)nc5c4)cc3)ccc2[nH]1)c1ccccc1 (single isomer, unassigned) [Example M46.1]	< 4.57
CC(=O)N1CCN(C(=O)OCc2ccccc2)[C@H](c2nc3cc(CCc4ccc5[nH]c([C@@H]6CN(C(C)=O)CCN6C(=O)OCc6ccccc6)nc5c4)ccc3[nH]2)C1 (stereo in doubt) [OL11, benzyl 4-acetyl-2-(5-(2-(2-(4-acetyl-1-((benzyloxy)carbonyl)-2-piperazinyl)-1H-benzimidazol-6-yl)ethyl)-1H-benzimidazol-2-yl)-1-piperazinecarboxylate]	100 to 999
CN(C)C(C(=O)N1CCC[C@H]1c1nc2ccc(-c3ccc4[nH]c([C@@H]5CCCN5C(=O)[C@@H](c5ccccc5)N(C)C)nc4c3)cc2[nH]1)c1ccccc1 (stereo partly drawn) [Example F1, (1R,1′R)-2,2′-(1H,1′H-5,5′-bibenzimidazole-2,2′-diyldi(2S)-2,1-pyrrolidinediyl)bis(N,N-dimethyl-2-oxo-1-phenylethanamine)]	< 4.57
COC(=O)N[C@@H](C(=O)N1CCC[C@H]1c1nc2cc(-c3ccc4nc([C@@H]5CCCN5C(=O)[C@H](NC(=O)OC)c5ccccc5)[nH]c4c3)ccc2[nH]1)c1ccccc1 [Example F2, dimethyl(1H,1′H-5,5′-bibenzimidazole-2,2′-diylbis((2S)-2,1-pyrrolidinediyl((1R)-2-oxo-1-phenyl-2,1-ethanediyl)))biscarbamate]	< 4.57
O=C(Cc1ccccc1)N1CCCC[C@H]1c1nc2ccc(CCc3ccc4nc([C@@H]5CCCCN5C(=O)Cc5ccccc5)[nH]c4c3)cc2[nH]1 [Example F3, 5,5′-(1,2-ethanediyl)bis(2-((2S)-1-(phenylacetyl)-2-piperidinyl)-1H-benzimidazole)]	100 to 999
CO[C@@H]1C[C@@H](c2nc3cc(CCc4ccc5nc([C@@H]6C[C@@H](OC)CN6C(=O)OCc6ccccc6)[nH]c5c4)ccc3[nH]2)N(C(=O)OCc2ccccc2)C1 [Example F4, benzyl (2S,4R)-2-(5-(2-(2-((2S,4R)-1-((benzyloxy)carbonyl)-4-methoxy-2-pyrrolidinyl)-1H-benzimidazol-6-yl)ethyl)-1H-benzimidazol-2-yl)-4-methoxy-1-pyrrolidinecarboxylate]	< 4.57
CCO[C@@H]1C[C@@H](c2nc3cc(CCc4ccc5nc([C@@H]6C[C@@H](OCC)CN6C(=O)OCc6ccccc6)[nH]c5c4)ccc3[nH]2)N(C(=O)OCc2ccccc2)C1 [Example F5, benzyl (2S,4R)-2-(5-(2-(2-((2S,4R)-1-((benzyloxy)carbonyl)-4-ethoxy-2-pyrrolidinyl)-1H-benzimidazol-6-yl)ethyl)-1H-benzimidazol-2-yl)-4-ethoxy-1-pyrrolidinecarboxylate]	4.57 to 99
CC(=O)N[C@@H](C(=O)N1CCC[C@H]1c1nc2cc(-c3ccc4nc([C@@H]5CCCN5C(=O)[C@H](NC(C)=O)c5ccccc5)[nH]c4c3)ccc2[nH]1)c1ccccc1 [Example F7, N,N′-(1H,1′H-5,5′-bibenzimidazole-2,2′-diylbis((2S)-2,1-pyrrolidinediyl((1R)-2-oxo-1-phenyl-2,1-ethanediyl)))diacetamide]	4.57 to 99
CO[C@@H]1C[C@@H](c2nc3cc(C#Cc4ccc5nc([C@@H]6C[C@@H](OC)CN6C(=O)OCc6ccccc6)[nH]c5c4)ccc3[nH]2)N(C(=O)OCc2ccccc2)C1 [Example F8, benzyl (2S,4R)-2-(5-((2-((2S,4R)-1-((benzyloxy)carbonyl)-4-methoxy-2-pyrrolidinyl)-1H-benzimidazol-6-yl)ethynyl)-1H-benzimidazol-2-yl)-4-methoxy-1-pyrrolidinecarboxylate]	< 4.57
CC(C)(C)O[C@@H]1C[C@@H](c2nc3cc(C#Cc4ccc5nc([C@@H]6C[C@@H](OC(C)(C)C)CN6C(=O)OCc6ccccc6)[nH]c5c4)ccc3[nH]2)N(C(=O)OCc2ccccc2)C1 [Example F10, benzyl (2S,4R)-2-(5-((2-((2S,4R)-1-((benzyloxy)carbonyl)-4-tert-butoxy-2-pyrrolidinyl)-1H-benzimidazol-6-yl)ethynyl)-1H-benzimidazol-2-yl)-4-tert-butoxy-1-pyrrolidinecarboxylate]	4.57 to 99
O=C(OCc1ccccc1)N1C[C@H](O)C[C@H]1c1nc2cc(C#Cc3ccc4[nH]c([C@@H]5C[C@@H](O)CN5C(=O)OCc5ccccc5)nc4c3)ccc2[nH]1 [Example F11]	< 4.57
COC(=O)N[C@@H](C(=O)N1CCC[C@H]1c1nc2cc(-c3cnc(-c4cccc5[nH]c([C@@H]6CCCN6C(=O)[C@H](NC(=O)OC)c6ccccc6)nc45)o3)ccc2[nH]1)c1ccccc1 [Example J6, Methyl((1R)-2-((2S)-2-(4-(5-(2-((2S)-1-((2R)-2-((methoxycarbonyl)amino)-2-phenylacetyl)-2-pyrrolidinyl)-1H-benzimidazol-5-yl)-1,3-oxazol-2-yl)-1H-benzimidazol-2-yl)-1-pyrrolidinyl)-2-oxo-1-phenylethyl)carbamate]	< 4.57
O=C(Cc1ccccc1)N1CCC[C@H]1c1nc2cc(-c3cnc(-c4cccc5[nH]c([C@@H]6CCCN6C(=O)Cc6ccccc6)nc45)o3)ccc2[nH]1 [Example J7, 2-((2S)-1-(phenylacetyl)-2-pyrrolidinyl)-4-(5-(2-((2S)-1-(phenylacetyl)-2-pyrrolidinyl)-1H-benzimidazol-5-yl)-1,3-oxazol-2-yl)-1H-benzimidazole]	4.57 to 99
COC(=O)N[C@@H](C)C(=O)N1CCC[C@H]1c1nc2cc(-c3cnc(-c4cccc5[nH]c([C@@H]6CCCN6C(=O)[C@H](C)NC(=O)OC)nc45)o3)ccc2[nH]1 [Example J8, methyl ((1S)-2-((2S)-2-(5-(2-(2-((2S)-1-(N-(methoxy-carbonyl)-L-alanyl)-2-pyrrolidinyl)-1H-benzimidazol-4-yl)-1,3-oxazol-5-yl)-1H-benzimidazol-2-yl)-1-pyrrolidinyl)-1-methyl-2-oxoethyl) carbamate]	< 4.57
O=C([C@H](O)c1ccccc1)N1CCC[C@H]1c1nc2cc(-c3cnc(-c4cccc5[nH]c([C@@H]6CCCN6C(=O)[C@H](O)c6ccccc6)nc45)o3)ccc2[nH]1 [Example J9, (1R)-2-((2S)-2-(4-(5-(2-((2S)-1-((2R)-2-hydroxy-2-phenylacetyl)-2-pyrrolidinyl)-1H-benzimidazol-5-yl)-1,3-oxazol-2-yl)-1H-benzimidazol-2-yl)-1-pyrrolidinyl)-2-oxo-1-phenylethanol]	4.57 to 99

Same assay, conditions: Hepatitis C virus, HCV 1b genotype replicon; numeric values

Compound	EC50 [nM]
CCCO[C@@H]1C[C@@H](c2nc3cc(CCc4ccc5nc([C@@H]6C[C@@H](OCCC)CN6C(=O)OCc6ccccc6)[nH]c5c4)ccc3[nH]2)N(C(=O)OCc2ccccc2)C1 [Example F6, benzyl (2S,4R)-2-(5-(2-(2-((2S,4R)-1-((benzyloxy)carbonyl)-4-propoxy-2-pyrrolidinyl)-1H-benzimidazol-6-yl)ethyl)-1H-benzimidazol-2-yl)-4-propoxy-1-pyrrolidinecarboxylate]	480
CCO[C@@H]1C[C@@H](c2nc3cc(C#Cc4ccc5nc([C@@H]6C[C@@H](OCC)CN6C(=O)OCc6ccccc6)[nH]c5c4)ccc3[nH]2)N(C(=O)OCc2ccccc2)C1 [Example F9, benzyl (2S,4R)-2-(5-((2-((2S,4R)-1-((benzyloxy)carbonyl)-4-ethoxy-2-pyrrolidinyl)-1H-benzimidazol-6-yl)ethynyl)-1H-benzimidazol-2-yl)-4-ethoxy-1-pyrrolidinecarboxylate]	20

Source: patent US7906655B2, “Hepatitis C virus inhibitors” (Bristol-Myers Squibb Company, priority 2008, dated 2011)
